The values that follow come from patent US8586613B2, “Pyridinium and quinolinium derivatives” (Universidad de Granada, priority 2004, dated 2013).

Series [1] relates to HT-29 cells. The experiment in a line: HT-29 cell proliferation assay (Crystal Violet). Format: cell-based, human. The conditions noted are these: six days of treatment. As to the method: The HT-29 cells were seeded in 24-well plates (35×10^3 cells/well) and were incubated for 24 hours. Then the cells were treated with different concentrations of ChoK inhibitors in the usual culture medium. Three days later, the wells were aspirated and both fresh medium and more amount of drug were added, and the cells were maintained for three more days. The quantification of the remaining cells in each well was carried out by means of the Crystal Violet method [Gillies, R. J., Didier, N., Denton, M. Anal. Biochem. 159, 109-113 (1986)], with some modifications [Hernández-Alcoceba, R., Saniger, L., Campos, J., Núñez, M. C., Khaless, F., Gallo, M. Á., Espinosa, A., Lacal, J. C. Oncogene, 15, 2289-2301 (1997)]. Briefly, the cells were washed with TD buffer and fixed with 1% glutaraldehyde for 15 minutes. After washing again with TD, the cell nuclei were coloured with 0.1% Crystal Violet for at least 30 minutes and washed three times with distilled water. The adsorbed colouring was resuspended in 10% acetic acid and the absorbance at 595 nm was determined in a spectrometer. […] This value determined by iterative curve adjustment. Two values are determined for each point of the curve, the experiment was repeated two or three times and the mean values were estimated. In the few cases in which the two values differed more than 50%, a third experiment was carried out to determine the real value. The IC50 value as a potency measurement is used to relate the biological activity of the compounds with their chemical structure.

Series [2] concerns MDA.MB.231 (breast cancer cell line) xenograft. The series is described as follows: Antitumor activity in breast xenografts (MDA.MB.231). Format: in vivo, Balb/c nude mice. As to the method: (§1) Six-week-old Balb/c nude mice (Charles River) were used. The research protocol was approved by the National Biotechnology Centre (CNB) Ethics Committee and animals were maintained in accordance to the Spanish Law guidelines (12 h light/dark cycle, and ad libitum access to food and autoclaved water). Mice were inoculated s.c. in both lower flanks with 1×10^6 of MDA.MB.231 (breast cancer cell line) cells resuspended in 100 μL of serum free DMEN (Invitrogen) media. MDA.MB.231 cells were passed at 80% to 90% confluence every 2 to 3 days in DMEN (Invitrogen) supplemented with 10% fetal bovine serum (FBS, Invitrogen), to ensure exponential growth before using them for the in vivo experiments.
Mice developing measurable subcutaneous tumors (˜0.1 cm^3) within 3 to 4 weeks were randomized to either treated or control groups (treated only with the drug vehicle). Tumor growth was monitored by measuring their size two to three times per week. Tumors were measured in two dimensions with digital calipers and tumor volume was estimated using the formula of a rational ellipse (D×d^2)/2, where D is the length of the long diameter and d is the short one. […]
Body weight of mice was assessed once per week and tumor volumes of the untreated and treated groups were compared and analyzed using the non parametric Mann-Whitney test. […]

Series [3] has as its system H460 (human NSCLC cells) xenograft. The experiment in a line: Antitumor activity in lung xenografts (H460). Format: in vivo, Balb/c nude mice. As to the method: as §1, with “H460 (human NSCLC cells)” for “MDA.MB.231 (breast cancer cell line)”, “RPMI” for “DMEN”, “H460” for “MDA.MB.231”, “in” for “them for”
Mice developing measurable subcutaneous tumors (˜0.15-0.2 cm^3) within 2 weeks were randomized to either treated or control groups (treated only with the drug vehicle). Tumor growth was monitored by measuring their size two to three times per week. Tumors were measured in two dimensions with digital calipers and tumor volume was estimated using the formula of a rational ellipse (D×d^2)/2, where D is the length of the long diameter and d is the short one. […]
Body weight of mice was assessed once per week and tumor volumes between the untreated and treated groups were compared and analyzed using the non parametric Mann-Whitney test. […]

Series [4] relates to DLD-1. The series is described as follows: MTT cell viability, panel of cell lines. In kind it is cell-based, human. The conditions noted are these: DLD-1, Colon, 72 h. As to the method: (§2) This effect can be observed in Table 1, where sensitivity to RSM932A of non-transformed MCF-10A epithelial cells is compared to 12 different human-tumor-derived cells from different tissues, including breast, lung, colon and pancreatic tumor cell lines.
(§3) The experimental conditions were as follows: cells were seeded at 10,000 cells per well into 96-well plates (BD, Falcon, Bioscience, San Jose, Calif., USA). Exponentially growing cells for 24 hours were exposed to different concentrations (quadruplicates for each concentration) of the compound for 72 hours. The colorimetric assay MTT (3-(4,5-dimethylthiazol-2-yl)-2,5-diphenyltetrazolium bromide was used to assess cell viability. The reaction correlates with absorbance read at 595 nm in a VersaMax Microplate Reader (Molecular Devices, Sunnyvale, Calif., USA). The IC50 (50% inhibitory concentration of a substance) is quantified by plotting the log OD (optical density) versus log drug concentration. IC50: Concentration of the compound that causes 50% growth inhibition with respect to control cells without drug.

Series [5] concerns H1299. The experiment in a line: MTT cell viability, panel of cell lines. In kind it is cell-based, human. To be noted: H1299, Lung, 72 h. As to the method:
as §2, §3

Series [6] relates to H460. The series is described as follows: MTT cell viability, panel of cell lines. To be noted: H460, Lung, 72 h. In kind it is cell-based, human. As to the method:
as §2, §3

Series [7] concerns H510. The experiment in a line: MTT cell viability, panel of cell lines. Format: cell-based, human. To be noted: H510, Lung, 72 h. As to the method:
as §2, §3

In series [8] the test system is HCT-116. The series is described as follows: MTT cell viability, panel of cell lines. In kind it is cell-based, human. The conditions noted are these: HCT-116, Colon, 72 h. As for the experimental part: as §2, §3
Series [9] has as its system HT-29. The experiment in a line: MTT cell viability, panel of cell lines. In kind it is cell-based, human. The conditions noted are these: HT-29, Colon, 72 h. As for the experimental part: as §2, §3
Series [10] has as its system MDA.MB.231. The experiment in a line: MTT cell viability, panel of cell lines. Format: cell-based, human. The conditions noted are these: MDA.MB.231, Breast, 72 h. As to the method: as §2, §3
For series [11], the system named is MDA.MB.468. The series is described as follows: MTT cell viability, panel of cell lines. Format: cell-based, human. To be noted: MDA.MB.468, Breast, 72 h. As for the experimental part: as §2, §3
The subject of series [12] is Mia.PaCa.2. The series is described as follows: MTT cell viability, panel of cell lines. Format: cell-based, human. The conditions noted are these: Mia.PaCa.2, Pancreas, 72 h. As to the method: as §2, §3
For series [13], the system named is SW620. The experiment in a line: MTT cell viability, panel of cell lines. In kind it is cell-based, human. To be noted: SW620, Colon, 72 h. As for the experimental part: as §2, §3
The subject of series [14] is SkBr-3. The series is described as follows: MTT cell viability, panel of cell lines. In kind it is cell-based, human. To be noted: SkBr-3, Breast, 72 h. As for the experimental part: as §2, §3
In series [15] the test system is T47D. The series is described as follows: MTT cell viability, panel of cell lines. Format: cell-based, human. To be noted: Breast, 72 h. As for the experimental part:
as §2, §3

Series [16] has as its system MCF10-A (non-transformed epithelial cells). The series is described as follows: MTT cell viability, panel of cell lines. In kind it is cell-based. To be noted: Non-tumorogenic, 72 h. As to the method:
as §2, §3

Series [17] has as its target T1, choline kinase from Plasmodium falcifarum (Pf-ChoK) (Plasmodium falciparum, UniProt Q8IM71).
T1 construct: made in house; host or cells: E. coli
The series is described as follows: Sensitivity of Plasmodium falcifarum choline kinase (expressed in E. coli). Format: biochemical. The conditions noted are these: read-out: IC50 (inhibition of Pf-ChoK). As to the method:
The sensitivity of choline kinase of the parasite Plasmodium falcifarum (Pf) was also tested with choline kinase inhibitors. Choline kinase from Pf was expressed in E. coli (FIG. 3) and tested for activity (data not shown). Optimal conditions were established and the IC50 determined.

T1 sequence (Q8IM71 entry or part of it): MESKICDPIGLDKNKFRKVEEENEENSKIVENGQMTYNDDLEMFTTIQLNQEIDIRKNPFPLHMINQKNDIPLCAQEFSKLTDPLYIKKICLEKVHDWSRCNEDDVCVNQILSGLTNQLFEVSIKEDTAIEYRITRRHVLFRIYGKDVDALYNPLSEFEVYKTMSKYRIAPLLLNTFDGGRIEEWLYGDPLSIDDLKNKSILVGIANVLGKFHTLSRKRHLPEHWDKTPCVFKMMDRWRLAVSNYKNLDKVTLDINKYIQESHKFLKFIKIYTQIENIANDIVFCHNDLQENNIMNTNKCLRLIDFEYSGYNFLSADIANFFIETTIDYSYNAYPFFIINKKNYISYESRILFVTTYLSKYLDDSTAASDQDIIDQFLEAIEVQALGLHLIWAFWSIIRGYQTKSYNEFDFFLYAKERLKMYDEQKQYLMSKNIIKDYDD

For orientation: IC50 means the concentration that gives 50% inhibition. Take `CN(c1ccc(Cl)cc1)c1cc[n+](Cc2ccc(-c3ccc(C[n+]4ccc(N(C)c5ccc(Cl)cc5)c5ccccc54)cc3)cc2)c2ccccc12.[Br-].[Br-]` [Compound 7, 1,1′-(biphenyl-4,4′-diylmethylene)bis[4-(4-chloro-N-methylanilino)quinolinium]dibromide]: the half-inhibitory concentration (IC50) in [1] was 1.2 µM; in series [4] it was 2.1 µM; in series [5], 1.9 µM; in series [6], 1.9 µM; in series [7], 1.4 µM; in series [8], 1.8 µM. The concentration for half-maximal inhibition (IC50) in series [9] was determined as 1.7 µM; in series [10], 1.3 µM; in [11], 2.4 µM; in series [12] it was 2.3 µM; in [13], 2.1 µM; in series [14], 3.1 µM. Also, the 50% inhibitory concentration (IC50) in series [15] turned out to be 2.25 µM; in [16], 7.1 µM; in [17], 0.93 µM. Also, the “Loss Weight” value in [2] (MDA.MB.231 xenograft mice, 1st day vs last day of treatment (24 g to 22.2 g)) turned out to be 7.5%; in [3] (H460 xenograft mice, 1st day vs last day of treatment (23.2 g to 20.8 g)), 10.5%. Besides, the “percentage of inhibition of tumor growth” value is on record as 54.5% in series [2] (MDA.MB.231 xenograft, 5 mg/kg i.p., three days per week for three weeks, after 20 days, relative to control mice) and 64.5% in [3] (H460 xenograft, 6 mg/kg i.p., five days in a week plus a boost, after 22 days, relative to control mice).
